{"source": "patent US20260345619A1", "about": "(Principia Biopharma Inc., priority 2023, published 2026)", "experiment": "Asthma Quality of Life Questionnaire with Standardized Activities (AQLQ(S))", "type": "in vivo, human", "conditions": "mITT", "description": "The AQLQ(S) is a self-administered patient reported outcome to measure the functional impairments that are most troublesome to adolescents and adults ≥12 years of age as a result of their asthma.\nAsthma Quality of Life Questionnaire with Standardized Activities (AQLQ(S)) self-administered (≥12 years)\nThe AQLQ(S) was designed as a self-administered patient reported outcome to measure the functional impairments that are most troublesome to adolescents and adults ≥12 years of age as a result of their asthma. The instrument is comprised of 32 items, each rated on a 7-point Likert scales from 1 to 7. The AQLQ(S) has 4 domains. The domains and the number of items in each domain are as follows: • Symptoms (12 items) • Activity limitation (11 items) • Emotional function (5 items) • Environmental stimuli (4 items)\nA global score is calculated ranging from 1 to 7 and a score by domain. Higher scores indicate better quality of life. […] Patients were to complete the questionnaire in an electronic diary during on-site visits.\nSecondary endpoints included pre-bronchodilator FEV1 change from baseline at EOT, ACQ-5 score change from baseline, and AQLQ score change from baseline. Other secondary and exploratory endpoints are described in Table 2.", "data": [{"smiles": "CC(C)(C=C(C#N)C(=O)N1CCC[C@@H](n2nc(-c3ccc(Oc4ccccc4)cc3F)c3c(N)ncnc32)C1)N1CCN(C2COC2)CC1", "note": "(mixture of isomers) [rilzabrutinib, (R)-2-[3-[4-amino-3-(2-fluoro-4-phenoxy-phenyl)pyrazolo[3,4-d]pyrimidin-1-yl]piperidine-1-carbonyl]-4-methyl-4-[4-(oxetan-3-yl)piperazin-1-yl]pent-2-enenitrile]", "values": [{"measurement": "AQLQ(S) Global score, Mean", "setting": "Week 8, 400 mg TID", "result": 5.27}, {"measurement": "AQLQ(S) Global score, Median", "setting": "Week 8, 400 mg TID", "result": 5.06}, {"measurement": "AQLQ(S) Global score, change from baseline, LS Mean", "setting": "Week 8, 400 mg TID", "result": 0.42}, {"measurement": "AQLQ(S) Global score, change from baseline, Mean", "setting": "Week 8, 400 mg TID", "result": 0.29}, {"measurement": "AQLQ(S) Global score, change from baseline, Median", "setting": "Week 8, 400 mg TID", "result": 0.34}, {"measurement": "AQLQ(S) Symptoms score, Mean", "setting": "Week 8, 400 mg TID", "result": 5.29}, {"measurement": "AQLQ(S) Symptoms score, Median", "setting": "Week 8, 400 mg TID", "result": 5.17}, {"measurement": "AQLQ(S) Symptoms score, change from baseline, LS Mean", "setting": "Week 8, 400 mg TID", "result": 0.44}, {"measurement": "AQLQ(S) Symptoms score, change from baseline, Mean", "setting": "Week 8, 400 mg TID", "result": 0.29}, {"measurement": "AQLQ(S) Symptoms score, change from baseline, Median", "setting": "Week 8, 400 mg TID", "result": 0.38}, {"measurement": "AQLQ(S) Symptoms score, change from baseline, LS Mean Diff vs. placebo", "setting": "Week 8, 400 mg TID, 95% CI −0.16, 0.43", "result": 0.13}, {"measurement": "AQLQ(S) Global score, change from baseline, LS Mean Diff vs. placebo", "setting": "Week 8, 400 mg TID, 95% CI −0.18, 0.37", "result": 0.10}, {"measurement": "AQLQ(S) Activity limitation score, change from baseline, LS Mean Diff vs. placebo", "setting": "Week 8, 400 mg TID, 95% CI −0.18, 0.38", "result": 0.10}, {"measurement": "AQLQ(S) Emotional function score, change from baseline, LS Mean Diff vs. placebo", "setting": "Week 8, 400 mg TID, 95% CI −0.20, 0.45", "result": 0.13}, {"measurement": "AQLQ(S) Environmental stimuli score, change from baseline, LS Mean Diff vs. placebo", "setting": "Week 8, 400 mg TID, 95% CI −0.34, 0.47", "result": 0.06}, {"measurement": "AQLQ(S) Activity limitation score, Mean", "setting": "Week 12, 400 mg BID", "result": 5.66}, {"measurement": "AQLQ(S) Activity limitation score, Median", "setting": "Week 12, 400 mg BID", "result": 5.82}, {"measurement": "AQLQ(S) Activity limitation score, change from baseline, LS Mean", "setting": "Week 12, 400 mg BID", "result": 0.77}, {"measurement": "AQLQ(S) Activity limitation score, change from baseline, Mean", "setting": "Week 12, 400 mg BID", "result": 0.85}, {"measurement": "AQLQ(S) Activity limitation score, change from baseline, Median", "setting": "Week 12, 400 mg BID", "result": 0.45}, {"measurement": "AQLQ(S) Emotional function score, Mean", "setting": "Week 12, 400 mg BID", "result": 5.96}, {"measurement": "AQLQ(S) Emotional function score, Median", "setting": "Week 12, 400 mg BID", "result": 6.20}, {"measurement": "AQLQ(S) Emotional function score, change from baseline, LS Mean", "setting": "Week 12, 400 mg BID", "result": 0.97}, {"measurement": "AQLQ(S) Emotional function score, change from baseline, Mean", "setting": "Week 12, 400 mg BID", "result": 0.72}, {"measurement": "AQLQ(S) Emotional function score, change from baseline, Median", "setting": "Week 12, 400 mg BID", "result": 0.40}, {"measurement": "AQLQ(S) Environmental stimuli score, Mean", "setting": "Week 12, 400 mg BID", "result": 5.34}, {"measurement": "AQLQ(S) Environmental stimuli score, change from baseline, LS Mean", "setting": "Week 12, 400 mg BID", "result": 0.70}, {"measurement": "AQLQ(S) Environmental stimuli score, change from baseline, Mean", "setting": "Week 12, 400 mg BID", "result": 0.87}, {"measurement": "AQLQ(S) Environmental stimuli score, change from baseline, Median", "setting": "Week 12, 400 mg BID", "result": 0.50}, {"measurement": "AQLQ(S) Global score, Mean", "setting": "Week 12, 400 mg BID", "result": 5.75}, {"measurement": "AQLQ(S) Global score, Median", "setting": "Week 12, 400 mg BID", "result": 5.72}, {"measurement": "AQLQ(S) Global score, change from baseline, LS Mean", "setting": "Week 12, 400 mg BID", "result": 0.82}, {"measurement": "AQLQ(S) Global score, change from baseline, Mean", "setting": "Week 12, 400 mg BID", "result": 0.84}, {"measurement": "AQLQ(S) Global score, change from baseline, Median", "setting": "Week 12, 400 mg BID", "result": 0.69}, {"measurement": "AQLQ(S) Symptoms score, Mean", "setting": "Week 12, 400 mg BID", "result": 5.87}, {"measurement": "AQLQ(S) Symptoms score, Median", "setting": "Week 12, 400 mg BID", "result": 5.92}, {"measurement": "AQLQ(S) Symptoms score, change from baseline, LS Mean", "setting": "Week 12, 400 mg BID", "result": 0.84}, {"measurement": "AQLQ(S) Symptoms score, change from baseline, Mean", "setting": "Week 12, 400 mg BID", "result": 0.87}, {"measurement": "AQLQ(S) Symptoms score, change from baseline, Median", "setting": "Week 12, 400 mg BID", "result": 0.83}, {"measurement": "AQLQ(S) Environmental stimuli score, change from baseline, LS Mean Diff vs. placebo", "setting": "Week 12, 400 mg BID, 95% CI 0.06, 1.49", "result": 0.78}, {"measurement": "AQLQ(S) Emotional function score, change from baseline, LS Mean Diff vs. placebo", "setting": "Week 12, 400 mg BID, 95% CI 0.12, 1.36", "result": 0.74}, {"measurement": "AQLQ(S) Symptoms score, change from baseline, LS Mean Diff vs. placebo", "setting": "Week 12, 400 mg BID, 95% CI 0.22, 1.11", "result": 0.67}, {"measurement": "AQLQ(S) Global score, change from baseline, LS Mean Diff vs. placebo", "setting": "Week 12, 400 mg BID, 95% CI 0.25, 1.18", "result": 0.72}, {"measurement": "AQLQ(S) Activity limitation score, change from baseline, LS Mean Diff vs. placebo", "setting": "Week 12, 400 mg BID, 95% CI 0.28, 1.28", "result": 0.78}, {"measurement": "AQLQ(S) Activity limitation score, Mean", "setting": "Week 12, 400 mg TID", "result": 5.45}, {"measurement": "AQLQ(S) Activity limitation score, Median", "setting": "Week 12, 400 mg TID", "result": 5.36}, {"measurement": "AQLQ(S) Activity limitation score, change from baseline, LS Mean", "setting": "Week 12, 400 mg TID", "result": 0.62}, {"measurement": "AQLQ(S) Activity limitation score, change from baseline, Mean", "setting": "Week 12, 400 mg TID", "result": 0.50}, {"measurement": "AQLQ(S) Activity limitation score, change from baseline, Median", "setting": "Week 12, 400 mg TID", "result": 0.55}, {"measurement": "AQLQ(S) Emotional function score, Mean", "setting": "Week 12, 400 mg TID", "result": 5.57}, {"measurement": "AQLQ(S) Emotional function score, Median", "setting": "Week 12, 400 mg TID", "result": 5.60}, {"measurement": "AQLQ(S) Emotional function score, change from baseline, LS Mean", "setting": "Week 12, 400 mg TID", "result": 0.53}, {"measurement": "AQLQ(S) Emotional function score, change from baseline, Mean", "setting": "Week 12, 400 mg TID", "result": 0.43}, {"measurement": "AQLQ(S) Emotional function score, change from baseline, Median", "setting": "Week 12, 400 mg TID", "result": 0.40}, {"measurement": "AQLQ(S) Environmental stimuli score, Mean", "setting": "Week 12, 400 mg TID", "result": 5.08}, {"measurement": "AQLQ(S) Environmental stimuli score, change from baseline, LS Mean", "setting": "Week 12, 400 mg TID", "result": 0.54}, {"measurement": "AQLQ(S) Environmental stimuli score, change from baseline, Mean", "setting": "Week 12, 400 mg TID", "result": 0.46}, {"measurement": "AQLQ(S) Environmental stimuli score, change from baseline, Median", "setting": "Week 12, 400 mg TID", "result": 0.50}, {"measurement": "AQLQ(S) Global score, Mean", "setting": "Week 12, 400 mg TID", "result": 5.41}, {"measurement": "AQLQ(S) Global score, Median", "setting": "Week 12, 400 mg TID", "result": 5.23}, {"measurement": "AQLQ(S) Global score, change from baseline, LS Mean", "setting": "Week 12, 400 mg TID", "result": 0.57}, {"measurement": "AQLQ(S) Global score, change from baseline, Mean", "setting": "Week 12, 400 mg TID", "result": 0.46}, {"measurement": "AQLQ(S) Global score, change from baseline, Median", "setting": "Week 12, 400 mg TID", "result": 0.53}, {"measurement": "AQLQ(S) Symptoms score, Mean", "setting": "Week 12, 400 mg TID", "result": 5.41}, {"measurement": "AQLQ(S) Symptoms score, Median", "setting": "Week 12, 400 mg TID", "result": 5.25}, {"measurement": "AQLQ(S) Symptoms score, change from baseline, LS Mean", "setting": "Week 12, 400 mg TID", "result": 0.59}, {"measurement": "AQLQ(S) Symptoms score, change from baseline, Mean", "setting": "Week 12, 400 mg TID", "result": 0.44}, {"measurement": "AQLQ(S) Symptoms score, change from baseline, Median", "setting": "Week 12, 400 mg TID", "result": 0.58}, {"measurement": "AQLQ(S) Activity limitation score, change from baseline, LS Mean Diff vs. placebo", "setting": "Week 12, 400 mg TID, 95% CI 0.02, 0.60", "result": 0.31}, {"measurement": "AQLQ(S) Global score, change from baseline, LS Mean Diff vs. placebo", "setting": "Week 12, 400 mg TID, 95% CI −0.01, 0.60", "result": 0.29}, {"measurement": "AQLQ(S) Symptoms score, change from baseline, LS Mean Diff vs. placebo", "setting": "Week 12, 400 mg TID, 95% CI −0.01, 0.68", "result": 0.34}, {"measurement": "AQLQ(S) Emotional function score, change from baseline, LS Mean Diff vs. placebo", "setting": "Week 12, 400 mg TID, 95% CI −0.08, 0.72", "result": 0.32}, {"measurement": "AQLQ(S) Environmental stimuli score, change from baseline, LS Mean Diff vs. placebo", "setting": "Week 12, 400 mg TID, 95% CI −0.23, 0.57", "result": 0.17}]}]}
